# Results from publication PMC6792352, “Limited Chemical Structural Diversity Found to Modulate Thyroid Hormone Receptor in the Tox21 Chemical Library” (Environmental Health Perspectives, 2019).
# Structures can show the parent of a compound that is named as a salt. Where two headings read alike, the source gives them in different places.
# Columns and labels:
# [1] = target: thyroid hormone receptor (endogenous TRα and TRβ); assay: GH3-TRE-Ag primary qHTS, luciferase reporter, agonist mode (TOX21_TR_LUC_GH3_Agonist, aeid 803); type: cell-based, rat; conditions: for AC50: read-out: GH3-TRE-Ag AC50; for GH3-TRE-Ag AC50 hitc: hit call from tcpl
# [2] = target: thyroid hormone receptor (endogenous TRα and TRβ); assay: GH3-TRE-Antag primary qHTS, luciferase reporter, antagonist mode with 1 nM T3 (TOX21_TR_LUC_GH3_Antagonist, aeid 804); type: cell-based, rat
# GH3-TRE-Luc cell line [3] = assay: GH3-TRE-Via cell viability, CellTiter-Fluor (TOX21_TR_LUC_GH3_Antagonist_viability, aeid 805)
# [4] = test system: thyroid hormone receptor (endogenous TRα and TRβ); assay: GH3-TRE-Ag-Followup confirmation (TOX21_TR_LUC_GH3_Agonist_Followup, aeid 2226); type: cell-based, rat; conditions: for GH3-TRE-Ag-Followup hitc: hit call from tcpl; for AC50: read-out: GH3-TRE-Ag-Followup AC50
# human RXRα = target: T1, human RXRα (Homo sapiens, UniProt P19793); assay: RXRa-bla-Ag mammalian one-hybrid beta-lactamase assay (TOX21_TR_RXR_BLA_Agonist_Followup_ratio, aeid 2253); type: cell-based; conditions: for tr-followup-rxr-bla-agonist-1 hitc: hit call from tcpl; for Emax: read-out: EMax (% of Control) tr-followup-rxr-bla-agonist-1; for AC50: read-out: tr-followup-rxr-bla-agonist-1 AC50
# T1 construct: host or cells: GeneBLAzer UAS-bla HEK 293T
# T1 sequence (P19793 227-458 limits assumed): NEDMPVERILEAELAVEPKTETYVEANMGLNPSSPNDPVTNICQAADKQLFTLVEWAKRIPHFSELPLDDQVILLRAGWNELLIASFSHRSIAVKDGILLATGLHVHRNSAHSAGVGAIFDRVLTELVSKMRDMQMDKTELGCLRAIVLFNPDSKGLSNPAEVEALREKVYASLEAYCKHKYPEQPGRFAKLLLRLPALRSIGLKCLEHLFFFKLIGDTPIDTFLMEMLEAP
# [5] = target: T2, TRα ligand-binding domain (Homo sapiens, UniProt P10827); assay: TRa-coa LanthaScreen TR-FRET coactivator (SRC-2 peptide) recruitment, agonist (TOX21_TRA_COA_Agonist_Followup_ratio, aeid 2230); type: biochemical; conditions: for AC50 / TRa-coa hitc: agonist; for AC50: read-out: TRa-coa AC50; for TRa-coa hitc: hit call from tcpl; for Emax: read-out: EMax (% of Control) tra-coa-agonist-followup-1
# T2 construct: the receptor LBDs expressed as glutathione S-transferase (GST) fusion proteins; purchased
# T2 sequence (P10827 163-410 isoform P10827-2 limits assumed, other chains not shown): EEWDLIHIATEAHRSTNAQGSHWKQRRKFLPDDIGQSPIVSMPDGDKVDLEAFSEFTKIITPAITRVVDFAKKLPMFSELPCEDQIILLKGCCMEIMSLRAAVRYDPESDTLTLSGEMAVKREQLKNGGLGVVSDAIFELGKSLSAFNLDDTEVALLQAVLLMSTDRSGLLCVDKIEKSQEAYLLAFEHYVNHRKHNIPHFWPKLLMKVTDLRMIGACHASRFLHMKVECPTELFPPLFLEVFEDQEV
# [6] = test system: Tox21 cell viability assays (different cell types); assay: Global cytotoxicity: eighteen Tox21 cell viability assays; type: cell-based
# [7] = test system: thyroid hormone receptor (TR); assay: Classification of TR actives across characterization assays (TR-Ag / RXR-Ag; TR model binary); set-up: key to Categorization Code: FP, false positive; conditions: TR agonist characterization
# From the text: Active rate comparison between receptors. […]; [Kleinstreuer et al. 2017]). We first removed chemicals classified as pharmaceuticals because these sets of chemicals are biased toward drugs targeting estrogen receptors and androgen receptors. […]. For TR, we cross-referenced these same chemicals for testing against TR and used candidate chemicals in Tables 2 and 3 to define active rates.
# Complete results from both GH3-TRE qHTS agonist, antagonist, and viability mode for the 8,305 compounds are provided in Excel Table S2. […]. […]. Together with some potential false negatives, these chemicals, totaling 84 in all, were screened for activity in a series of assays for confirmation in the GH3-TRE-Ag assay; specificity screening in the TRβ-UAS-bla HEK 293T and RXRα-UAS-bla HEK 293T mammalian one-hybrid assays; viability assays for the HEK293T parental cell line; and orthogonal screening in two TR:coactivator recruitment assays, TRa-coa and TRb-coa. […].
# GH3-TRE-Luc cell line [8] = conditions: for TR_LUC_GH3_Antagonist_viability hitc: rat, 24 h
# in vitro = conditions: rat, gh3-tre-luc cells
# [9] = target: T3, human TRβ ligand-binding domain (Homo sapiens, UniProt P10828); assay: TRb-bla agonist mammalian one-hybrid beta-lactamase assay (TOX21_TRB_BLA_Agonist_Followup_ratio, aeid 2236); type: cell-based; set-up: host or cells: GeneBLAzer UAS-bla HEK 293T; conditions: for AC50 / TRb-bla hitc: agonist; for AC50: read-out: TRb-bla AC50; for TRb-bla hitc: hit call from tcpl; for Emax: read-out: EMax (% of Control) trb-bla-agonist-followup-1
# T3 sequence (P10828 217-461 limits assumed): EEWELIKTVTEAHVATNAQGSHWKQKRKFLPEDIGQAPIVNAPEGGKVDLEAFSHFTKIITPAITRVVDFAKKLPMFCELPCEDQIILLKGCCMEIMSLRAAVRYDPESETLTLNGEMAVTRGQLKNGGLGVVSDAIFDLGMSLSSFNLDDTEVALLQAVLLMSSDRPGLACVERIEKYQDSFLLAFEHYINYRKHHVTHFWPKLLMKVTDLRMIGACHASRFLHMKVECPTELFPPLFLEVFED
# [10] = target: T3, human TRβ ligand-binding domain; assay: TRb-coa LanthaScreen TR-FRET coactivator (SRC-2 peptide) recruitment, agonist (TOX21_TRB_COA_Agonist_Followup_ratio, aeid 2244); type: biochemical; set-up: host or cells: GeneBLAzer UAS-bla HEK 293T; conditions: for AC50 / TRb-coa hitc: agonist; for AC50: read-out: TRb-coa AC50; for TRb-coa hitc: hit call from tcpl; for Emax: read-out: EMax (% of Control) trb-coa-agonist-followup-1
# [11] = antagonist candidates, inactive samples arbitrarily set to AC50=1,000 μM
# [12] = antagonist mode, 1 nM T3, read-out: GH3-TRE-Antag AC50
# [13] = Rattus norvegicus, read-out: TR_LUC_GH3_Antagonist_viability AC50 (uM)
# [14] = Table S8, read-out: Average AC50 (uM) GH3-TRE-Antag
smiles,measurement,setting,value
"O=C1NCN(c2ccccc2)C12CCN(CCCOc1ccc(F)cc1)CC2 [AMI-193, reference compound]",AC50,[1]; [11],> 92 µM
same,AC50,[2]; [12],15.8 µM
same,AC50,"GH3-TRE-Luc cell line [3]; read-out: GH3-TRE-Via AC50, inactive samples arbitrarily set to AC50=1,000 μM",14.1 µM
"O=c1[nH]cnc2c1ncn2[C@H]1CC[C@@H](CO)O1 [2',3'-Dideoxyinosine]",EMax (% of Control) gh3-tre-agonist,[1],1.6 % of Control
same,GH3-TRE-Ag AC50 hitc,[1],0
same,AC50,[1],> 92 µM
same,EMax (% of Control) gh3-tre-agonist-followup-1_agonist,[4],78.5 % of Control
same,GH3-TRE-Ag-Followup hitc,[4],1
same,AC50,[4],3.46 µM
same,tr-followup-rxr-bla-agonist-1 hitc,human RXRα,0
same,Emax,human RXRα,-0.6%
same,AC50,human RXRα,> 92 µM
same,AC50,[5],> 92 µM
same,TRa-coa hitc,[5],0
same,Emax,[5],-0.5%
same,GLOBAL CYTOTOXICITY cytotox.median,[6],>92
same,GLOBAL CYTOTOXICITY cytotox.number_Active,[6],0
same,Categorization Code,[7],FP
same,TR_LUC_GH3_Antagonist_viability hitc,GH3-TRE-Luc cell line [8],0
same,CC50 at 24 h,in vitro; AC50 (uM) modified / 1000,> 100 µM
same,AC50,[9],3.46 µM
same,TRb-bla hitc,[9],1
same,Emax,[9],74.4%
same,AC50,[10],> 92 µM
same,TRb-coa hitc,[10],0
same,Emax,[10],-0.448%
same,AC50,GH3-TRE-Luc cell line [3]; [13],> 92 µM
CC[C@H](O)C(C[C@H](C)N(C)C)(c1ccccc1)c1ccccc1 [(-)-alpha-Methadol hydrochloride],resp_max GH3-TRE-Antag,[2]; Table S8,76.3
same,AC50,[2]; [14],58 µM
same,CC50 at 24 h,"in vitro; AC50 (uM) modified / 1000, Tox21_110001=Tox21_112827, viability, 1 nM T3 present, 24 h",43.2 µM
same,resp_max GH3-TRE-Via,GH3-TRE-Luc cell line [3]; Table S8,67.0
same,AC50,"GH3-TRE-Luc cell line [3]; read-out: Average AC50 GH3-TRE-Via, Table S8, inactive set to 1000",43.2 µM
"CC[C@@]1(O)C(=O)OCc2c1cc1n(c2=O)Cc2cc3c(CN(C)C)c(O)ccc3nc2-1 [Topotecan hydrochloride, reference compound]",activity in GH3-TRE antagonist mode assay,[2],complete inhibition of luciferase activity
same,cytotoxicity in GH3 viability assay,GH3-TRE-Luc cell line [8],not considered active
COC(=O)C1=C(C)NC(C)=C(C(=O)OCCN2CCN(C(c3ccccc3)c3ccccc3)CC2)C1c1cccc([N+](=O)[O-])c1 (stereo not drawn) [Manidipine dihydrochloride],AC50,[1]; [11],> 92 µM
same,AC50,[2]; [12],7.4 µM
same,AC50,[6],18.6 µM
same,Active in global cytotoxicity assays (%),[6],28.8%
same,AC50,GH3-TRE-Luc cell line [8],9.06 µM
same,CC50 at 24 h,in vitro; AC50 (uM) modified / 1000,9.06 µM
"CCN(CC)C(=O)N[C@@H]1C=C2c3cccc4[nH]cc(c34)C[C@@H]2N(C)C1 [(-)-(5S,8R)-Lisuride]",resp_max GH3-TRE-Antag,[2]; Table S8,34.7
same,resp_max GH3-TRE-Via,GH3-TRE-Luc cell line [3]; Table S8,42.3
"CC(C)(c1ccc(O)cc1)c1ccc(O)cc1 [BPA, bisphenol A]",activity in GH3-TRE antagonist mode assay,[2],active in suppressing the TR transactivation assay
same,CC50 at 24 h,in vitro; AC50 (uM) modified / 1000,> 90 µM
CC[C@]12CCCN3CCc4c(n(c5ccccc45)C(=O)C1)[C@@H]32 [(-)-Eburnamonine],resp_max GH3-TRE-Antag,[2]; Table S8,88.8
same,AC50,[2]; [14],6.85 µM
same,AC50,GH3-TRE-Luc cell line [8],7.18 µM
same,resp_max GH3-TRE-Via,GH3-TRE-Luc cell line [8],66.2
same,CC50 at 24 h,in vitro; AC50 (uM) modified / 1000,7.18 µM
COc1ccc(OC)c(C(O)C(C)N)c1 (stereo not drawn) [Methoxamine hydrochloride],EMax (% of Control) gh3-tre-agonist,[1],25.7 % of Control
same,GH3-TRE-Ag AC50 hitc,[1],1
same,EMax (% of Control) gh3-tre-agonist-followup-1_agonist,[4],29.2 % of Control
same,GH3-TRE-Ag-Followup hitc,[4],1
same,AC50,[4],23.4 µM
same,tr-followup-rxr-bla-agonist-1 hitc,human RXRα,0
same,Emax,human RXRα,-0.7%
same,AC50,human RXRα,> 92 µM
same,AC50,[5],> 92 µM
same,TRa-coa hitc,[5],0
same,Emax,[5],0.282%
same,GLOBAL CYTOTOXICITY cytotox.median,[6],>92
same,GLOBAL CYTOTOXICITY cytotox.number_Active,[6],0
same,Categorization Code,[7],FP
same,TR_LUC_GH3_Antagonist_viability hitc,GH3-TRE-Luc cell line [8],0
same,CC50 at 24 h,in vitro; AC50 (uM) modified / 1000,> 50 µM
same,AC50,[9],> 92 µM
same,TRb-bla hitc,[9],0
same,Emax,[9],7.9%
same,AC50,[10],> 92 µM
same,TRb-coa hitc,[10],0
same,Emax,[10],1.5%
same,AC50,GH3-TRE-Luc cell line [3]; [13],> 92 µM
